Like-named read-outs stand apart in the source and are kept apart here.

Holding throughout (assay): SelectScreen Z-LYTE kinase activity assay (SI Table 6)
What all share (type): biochemical

Experiment [1] addresses protein kinases of the Z-LYTE panel (Homo sapiens, UniProt P19784). An outline of the steps: (§1)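 Kinases in the SelectScreen panel (Adapta, LanthaScreen binding, Z-LYTE formats) were tested against compound at 1 μM. Separately, ATM (100 nM, 5 μM GST-p53, 1 mM ATP, 30 min, 30°C) and mTORC1 (50 nM, 15 μM 4E-BP1, 250 μM ATP, 3 h) were run with 200 μM compound. Those products were read on Phos-tag gels.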

In experiment [2] the target is protein kinases of the Z-LYTE panel (Homo sapiens, UniProt Q13554). An outline of the steps: as §1
Sequence of protein kinases of the Z-LYTE panel (Homo sapiens, UniProt Q13554) (Q13554 whole entry): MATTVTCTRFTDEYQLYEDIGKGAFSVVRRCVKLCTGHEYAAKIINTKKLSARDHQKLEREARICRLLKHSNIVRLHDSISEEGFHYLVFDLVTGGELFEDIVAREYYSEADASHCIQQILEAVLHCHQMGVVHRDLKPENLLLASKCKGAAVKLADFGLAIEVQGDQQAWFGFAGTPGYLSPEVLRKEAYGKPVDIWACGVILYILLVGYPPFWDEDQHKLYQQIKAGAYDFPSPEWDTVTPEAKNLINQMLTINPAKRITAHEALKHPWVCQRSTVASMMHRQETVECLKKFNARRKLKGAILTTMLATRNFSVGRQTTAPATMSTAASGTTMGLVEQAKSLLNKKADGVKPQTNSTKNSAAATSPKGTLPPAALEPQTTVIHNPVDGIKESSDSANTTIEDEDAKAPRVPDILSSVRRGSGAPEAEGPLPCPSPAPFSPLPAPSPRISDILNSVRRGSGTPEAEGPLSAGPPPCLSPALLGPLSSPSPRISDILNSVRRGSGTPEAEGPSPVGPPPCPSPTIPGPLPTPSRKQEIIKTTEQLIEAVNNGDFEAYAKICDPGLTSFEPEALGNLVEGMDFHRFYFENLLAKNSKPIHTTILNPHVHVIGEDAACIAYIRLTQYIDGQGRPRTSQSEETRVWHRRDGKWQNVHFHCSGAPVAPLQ
Experiment [3] deals with protein kinases of the Z-LYTE panel (Homo sapiens, UniProt Q16620). An outline of the steps:
as §1

Experiment [4] addresses protein kinases of the Z-LYTE panel (Homo sapiens, UniProt P09619). The gist of the method: as §1
In experiment [5] the target is T1, protein kinases of the Z-LYTE panel (Homo sapiens, UniProt Q02156).
T1 sequence (Q02156 1-737): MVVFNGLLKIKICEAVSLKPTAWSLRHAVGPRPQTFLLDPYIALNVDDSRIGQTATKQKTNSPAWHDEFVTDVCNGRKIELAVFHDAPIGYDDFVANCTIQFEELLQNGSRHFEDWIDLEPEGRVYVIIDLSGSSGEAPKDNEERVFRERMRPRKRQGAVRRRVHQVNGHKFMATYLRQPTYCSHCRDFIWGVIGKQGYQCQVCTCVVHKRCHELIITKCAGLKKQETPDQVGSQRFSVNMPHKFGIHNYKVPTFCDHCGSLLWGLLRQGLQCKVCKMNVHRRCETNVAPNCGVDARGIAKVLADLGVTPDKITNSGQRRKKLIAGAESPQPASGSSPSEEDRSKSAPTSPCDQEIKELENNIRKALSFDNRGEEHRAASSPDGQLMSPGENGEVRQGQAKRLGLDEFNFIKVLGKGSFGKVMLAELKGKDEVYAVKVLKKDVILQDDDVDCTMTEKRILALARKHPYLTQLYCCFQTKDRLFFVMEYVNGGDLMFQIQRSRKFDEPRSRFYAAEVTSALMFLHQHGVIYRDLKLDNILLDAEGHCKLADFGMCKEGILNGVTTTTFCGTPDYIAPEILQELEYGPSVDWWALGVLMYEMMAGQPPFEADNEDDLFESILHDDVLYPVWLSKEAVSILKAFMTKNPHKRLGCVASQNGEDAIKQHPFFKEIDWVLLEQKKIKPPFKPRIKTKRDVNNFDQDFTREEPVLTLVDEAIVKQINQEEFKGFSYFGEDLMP
The gist of the method:
as §1

Experiment [6] deals with protein kinases of the Z-LYTE panel (Homo sapiens, UniProt P49761). An outline of the steps: as §1
Sequence of protein kinases of the Z-LYTE panel (Homo sapiens, UniProt P49761) (P49761 whole entry): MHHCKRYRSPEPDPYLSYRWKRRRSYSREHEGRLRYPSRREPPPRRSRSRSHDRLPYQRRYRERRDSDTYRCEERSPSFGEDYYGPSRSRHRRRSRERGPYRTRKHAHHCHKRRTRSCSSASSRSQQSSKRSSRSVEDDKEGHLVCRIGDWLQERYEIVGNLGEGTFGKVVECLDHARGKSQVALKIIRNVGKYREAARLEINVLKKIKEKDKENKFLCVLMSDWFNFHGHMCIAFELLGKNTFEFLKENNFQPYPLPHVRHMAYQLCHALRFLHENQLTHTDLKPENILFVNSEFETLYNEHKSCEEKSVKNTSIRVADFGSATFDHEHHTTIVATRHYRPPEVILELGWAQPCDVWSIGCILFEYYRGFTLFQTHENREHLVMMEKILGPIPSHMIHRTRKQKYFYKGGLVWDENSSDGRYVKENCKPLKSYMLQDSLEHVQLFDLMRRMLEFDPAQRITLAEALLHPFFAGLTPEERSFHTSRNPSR
Experiment [7] has as its target T2, protein kinases of the Z-LYTE panel (Homo sapiens, UniProt Q13976).
T2 sequence (Q13976 1-671): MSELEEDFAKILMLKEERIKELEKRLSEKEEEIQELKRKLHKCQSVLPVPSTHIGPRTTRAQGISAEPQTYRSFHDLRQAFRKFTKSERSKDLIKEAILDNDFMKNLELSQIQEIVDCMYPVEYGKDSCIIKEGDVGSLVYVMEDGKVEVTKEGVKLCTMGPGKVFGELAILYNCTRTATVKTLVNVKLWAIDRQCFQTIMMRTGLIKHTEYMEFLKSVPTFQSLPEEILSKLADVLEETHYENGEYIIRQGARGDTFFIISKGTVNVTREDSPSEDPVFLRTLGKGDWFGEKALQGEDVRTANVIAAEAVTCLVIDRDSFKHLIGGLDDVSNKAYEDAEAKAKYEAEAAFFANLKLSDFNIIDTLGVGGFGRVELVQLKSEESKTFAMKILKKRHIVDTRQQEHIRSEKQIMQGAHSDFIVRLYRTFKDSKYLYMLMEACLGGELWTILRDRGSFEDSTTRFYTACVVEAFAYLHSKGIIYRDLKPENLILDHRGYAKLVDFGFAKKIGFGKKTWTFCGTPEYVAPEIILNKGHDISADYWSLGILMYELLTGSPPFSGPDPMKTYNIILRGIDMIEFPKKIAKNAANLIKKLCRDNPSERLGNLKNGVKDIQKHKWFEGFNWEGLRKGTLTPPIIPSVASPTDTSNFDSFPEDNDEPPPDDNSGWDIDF
An outline of the steps: as §1

Sequence of protein kinases of the Z-LYTE panel (Homo sapiens, UniProt Q16620) (Q16620 32-822): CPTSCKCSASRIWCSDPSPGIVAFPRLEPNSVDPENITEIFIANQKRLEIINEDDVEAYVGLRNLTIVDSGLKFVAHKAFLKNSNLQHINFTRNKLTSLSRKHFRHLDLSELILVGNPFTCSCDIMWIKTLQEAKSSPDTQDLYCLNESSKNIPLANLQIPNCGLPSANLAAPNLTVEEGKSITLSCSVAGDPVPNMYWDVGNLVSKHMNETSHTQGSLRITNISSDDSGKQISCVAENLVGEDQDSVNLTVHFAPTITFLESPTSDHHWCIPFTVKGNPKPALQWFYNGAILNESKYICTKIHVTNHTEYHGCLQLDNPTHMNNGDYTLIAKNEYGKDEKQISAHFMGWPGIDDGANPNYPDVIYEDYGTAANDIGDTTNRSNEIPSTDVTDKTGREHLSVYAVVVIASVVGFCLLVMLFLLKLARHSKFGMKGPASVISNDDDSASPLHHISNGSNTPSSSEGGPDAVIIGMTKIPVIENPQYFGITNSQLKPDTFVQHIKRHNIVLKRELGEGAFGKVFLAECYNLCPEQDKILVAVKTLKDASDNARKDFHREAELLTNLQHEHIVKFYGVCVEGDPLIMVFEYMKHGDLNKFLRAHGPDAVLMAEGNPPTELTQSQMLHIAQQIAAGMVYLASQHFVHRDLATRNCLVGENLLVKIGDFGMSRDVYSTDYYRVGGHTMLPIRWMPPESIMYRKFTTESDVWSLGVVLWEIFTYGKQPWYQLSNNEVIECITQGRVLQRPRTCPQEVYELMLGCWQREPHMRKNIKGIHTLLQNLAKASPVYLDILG
Sequence of protein kinases of the Z-LYTE panel (Homo sapiens, UniProt P09619) (P09619 33-1106): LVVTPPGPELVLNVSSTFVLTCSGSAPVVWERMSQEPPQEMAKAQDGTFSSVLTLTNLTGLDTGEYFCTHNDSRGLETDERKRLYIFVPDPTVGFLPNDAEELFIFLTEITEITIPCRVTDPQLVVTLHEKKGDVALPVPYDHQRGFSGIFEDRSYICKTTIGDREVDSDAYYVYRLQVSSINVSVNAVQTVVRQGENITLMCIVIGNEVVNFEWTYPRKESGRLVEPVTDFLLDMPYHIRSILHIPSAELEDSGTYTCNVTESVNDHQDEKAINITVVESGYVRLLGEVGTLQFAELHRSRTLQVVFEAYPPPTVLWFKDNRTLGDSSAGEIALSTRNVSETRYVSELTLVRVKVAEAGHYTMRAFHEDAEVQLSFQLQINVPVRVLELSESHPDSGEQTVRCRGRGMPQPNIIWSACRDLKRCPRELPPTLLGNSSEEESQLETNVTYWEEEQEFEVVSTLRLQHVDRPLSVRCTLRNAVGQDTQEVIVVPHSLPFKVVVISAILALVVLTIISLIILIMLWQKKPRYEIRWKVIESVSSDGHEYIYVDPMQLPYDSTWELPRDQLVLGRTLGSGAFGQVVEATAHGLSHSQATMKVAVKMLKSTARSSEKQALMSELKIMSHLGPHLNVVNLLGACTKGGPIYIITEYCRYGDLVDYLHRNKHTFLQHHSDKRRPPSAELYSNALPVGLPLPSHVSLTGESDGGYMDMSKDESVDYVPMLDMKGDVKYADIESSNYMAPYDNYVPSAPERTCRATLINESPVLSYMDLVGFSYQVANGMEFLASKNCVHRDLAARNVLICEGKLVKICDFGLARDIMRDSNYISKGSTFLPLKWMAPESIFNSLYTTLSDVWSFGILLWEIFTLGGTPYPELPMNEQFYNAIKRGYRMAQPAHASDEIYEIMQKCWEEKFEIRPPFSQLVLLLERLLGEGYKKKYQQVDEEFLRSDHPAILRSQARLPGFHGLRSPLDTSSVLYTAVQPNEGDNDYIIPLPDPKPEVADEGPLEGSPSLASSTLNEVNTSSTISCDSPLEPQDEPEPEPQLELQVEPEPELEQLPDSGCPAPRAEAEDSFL
Sequence of protein kinases of the Z-LYTE panel (Homo sapiens, UniProt P19784) (P19784 whole entry): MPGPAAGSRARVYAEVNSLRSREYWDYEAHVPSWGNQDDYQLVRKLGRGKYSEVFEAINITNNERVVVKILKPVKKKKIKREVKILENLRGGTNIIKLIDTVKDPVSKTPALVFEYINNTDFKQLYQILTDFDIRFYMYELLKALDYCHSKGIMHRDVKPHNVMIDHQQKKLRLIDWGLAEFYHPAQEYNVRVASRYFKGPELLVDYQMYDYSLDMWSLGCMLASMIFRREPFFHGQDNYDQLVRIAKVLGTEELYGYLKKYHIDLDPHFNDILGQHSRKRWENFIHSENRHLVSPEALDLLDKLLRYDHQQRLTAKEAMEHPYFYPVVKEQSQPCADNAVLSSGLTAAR

What is called inhibition is the drop in the measured response relative to a control, in per cent. With `CCN1CCN(c2ccc(Nc3cc(Nc4cccc5c4N(C(C)=O)CC5)ccn3)cc2)CC1` [Compound 1938], the inhibition at 1 µM worked out at 0.87% in experiment [1] (read-out: % Inhibition Point 1); 2.67% in experiment [1] (read-out: % Inhibition Point 2); 1.77% in experiment [1] (read-out: % Inhibition mean); 8% in experiment [2] (read-out: % Inhibition Point 1); 6% in experiment [2] (read-out: % Inhibition Point 2); 7% in experiment [2] (read-out: % Inhibition mean). Besides, the inhibition at 1 µM in experiment [3] (read-out: % Inhibition Point 1) was 7.5%; in experiment [3] (read-out: % Inhibition Point 2) it was 6%; in experiment [3] (read-out: % Inhibition mean), 6.66%; in experiment [4] (read-out: % Inhibition Point 1), 7%; in experiment [4] (read-out: % Inhibition Point 2), 7%; in experiment [4] (read-out: % Inhibition mean), 7%. For the same compound, the inhibition at 1 µM is 1% in experiment [5] (read-out: % Inhibition Point 1); 2% in experiment [5] (read-out: % Inhibition Point 2); 1.57% in experiment [5] (read-out: % Inhibition mean); -1% in experiment [6] (read-out: % Inhibition Point 1); 0.422% in experiment [6] (read-out: % Inhibition Point 2); -0.267% in experiment [6] (read-out: % Inhibition mean). In addition, the inhibition at 1 µM is 4.68% in experiment [7] (read-out: % Inhibition Point 1), -0.193% in experiment [7] (read-out: % Inhibition Point 2) and 2.24% in experiment [7] (read-out: % Inhibition mean).

The values above are taken from PMC7614683, “A small molecule PI3Kα activator for cardioprotection and neuroregeneration” (Nature, 2023).
